What was measured:
Format in all cases: functional
B16 [1] = test: Inhibition of melanogenesis in mouse B16 cells assessed as intracellular melanogenesis activity at 12.5 uM after 72 hrs relative to control; set-up: scale not given: the % may be the effect or the level left
B16 [2] = test: Antiproliferative activity against mouse B16 cells assessed as cell proliferation level at 50 uM after 72 hrs by MTT assay relative to control
B16 [3] = test: Inhibition of melanogenesis in mouse B16 cells assessed as extracellular melanogenesis activity at 12.5 uM after 72 hrs relative to control; set-up: scale not given: the % may be the effect or the level left
B16 [4] = test: Antiproliferative activity against mouse B16 cells assessed as cell proliferation level at 25 uM after 72 hrs by MTT assay relative to control
B16 [5] = test: Antiproliferative activity against mouse B16 cells assessed as cell proliferation level at 12.5 uM after 72 hrs by MTT assay relative to control
B16 [6] = test: Inhibition of melanogenesis in mouse B16 cells assessed as intracellular melanogenesis activity at 25 uM after 72 hrs relative to control; set-up: scale not given: the % may be the effect or the level left
B16 [7] = test: Inhibition of melanogenesis in mouse B16 cells assessed as extracellular melanogenesis activity at 25 uM after 72 hrs relative to control; set-up: scale not given: the % may be the effect or the level left
B16 [8] = test: Inhibition of melanogenesis in mouse B16 cells assessed as extracellular melanogenesis activity at 6.25 uM after 72 hrs relative to control; set-up: scale not given: the % may be the effect or the level left
B16 [9] = test: Inhibition of melanogenesis in mouse B16 cells assessed as intracellular melanogenesis activity at 50 uM after 72 hrs relative to control; set-up: scale not given: the % may be the effect or the level left
B16 [10] = test: Inhibition of melanogenesis in mouse B16 cells assessed as extracellular melanogenesis activity at 50 uM after 72 hrs relative to control; set-up: scale not given: the % may be the effect or the level left
B16 [11] = test: Antiproliferative activity against mouse B16 cells assessed as cell proliferation level at 6.25 uM after 72 hrs by MTT assay relative to control
B16 [12] = test: Inhibition of melanogenesis in mouse B16 cells assessed as intracellular melanogenesis activity at 6.25 uM after 72 hrs relative to control; set-up: scale not given: the % may be the effect or the level left
B16 [13] = test: Inhibition of melanogenesis in mouse B16 cells assessed as intracellular melanogenesis activity at 730 uM after 72 hrs relative to control; set-up: scale not given: the % may be the effect or the level left
B16 [14] = test: Inhibition of melanogenesis in mouse B16 cells assessed as extracellular melanogenesis activity at 730 uM after 72 hrs relative to control; set-up: scale not given: the % may be the effect or the level left
B16 [15] = test: Antiproliferative activity against mouse B16 cells assessed as cell proliferation level at 730 uM after 72 hrs by MTT assay relative to control

Row | SMILES | Activity (B16 [1]) | Activity (B16 [2]) | Activity (B16 [3]) | Activity (B16 [4]) | Activity (B16 [5]) | Activity (B16 [6]) | Activity (B16 [7]) | Activity (B16 [8]) | Activity (B16 [9]) | Activity (B16 [10]) | Activity (B16 [11]) | Activity (B16 [12]) | Activity (B16 [13]) | Activity (B16 [14]) | Activity (B16 [15])
1 | COc1cc(O)c2c(=O)cc(-c3ccc(O)c(O)c3)oc2c1 | 87% | 41% | 51% | 55% | 85% | 50% | 14% | 107% | 50% | 16% | 98% | 108% | – | – | –
2 | OC[C@H]1O[C@@H](Oc2ccc(O)cc2)[C@H](O)[C@@H](O)[C@@H]1O [ARBUTIN] | – | – | – | – | – | – | – | – | – | – | – | – | 89% | 45% | 105%
3 | O=c1cc(-c2ccc(O)c(O)c2)oc2cc(O)cc(O)c12 [LUTEOLIN] | 118% | 34% | 109% | 68% | 110% | 66% | 15% | 114% | 55% | 16% | 106% | 122% | – | – | –
